Here are results for 9 molecules from ChEMBL document CHEMBL1201862, “PubChem BioAssay data set” (2004).

Some test systems named below: NCI-H460; EKVX; TK-10; SNB-75; CCRF-CEM; OVCAR-4; M14; NCI-H226; T47D; BT-549; RPMI-8226; KM12; SK-OV-3; M19-MEL; MOLT-4; LOX IMVI; CAKI-1; IGROV-1; OVCAR-5; NCI/ADR-RES.
Holding throughout (test): DTP human tumour cell line panel, 48 h

SMILES strings stand for the structures.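 How tested: cells in 96-well plates exposed to compound for 48 hours at five concentrations. Here, GI50 denotes the concentration required for 50% inhibition of growth.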 Activity calls are given as the source filed them. Cut-off read from the data, not from the text of the source: active = GI50 up to about 1.1 µM and inactive = higher.

As a reminder, the GI50 is the concentration that inhibits growth by half. For `NCc1ccc(O)c(O)c1O`, the GI50 in the test on NCI-H460 was 18.5 µM (inactive); in the test on EKVX, 39.7 µM (inactive); in the test with TK-10, > 100 µM (inactive); in the test with SNB-75 it was 26.4 µM (inactive); in the test with CCRF-CEM it was 10.9 µM (inactive); in the test on OVCAR-4, 26.1 µM (inactive). Moreover, the GI50 in the test on M14 is 14.3 µM (inactive); in the test with NCI-H226 it was > 46.8 µM (inactive); in the test with T47D, 26.2 µM (inactive); in the test with BT-549, 18.4 µM (inactive); in the test on RPMI-8226, 26.9 µM (inactive); with KM12, 24.3 µM (inactive). The GI50 was > 78 µM (inactive) in the test with SK-OV-3; 12.8 µM (inactive) with M19-MEL; 28.4 µM (inactive) in the test with MOLT-4; 16.8 µM (inactive) in the test with LOX IMVI; 29.3 µM (inactive) with CAKI-1; 38.9 µM (inactive) in the test on IGROV-1. The GI50 in the test on OVCAR-5 is 17.3 µM (inactive).

Turning to `O=c1cccccc1NCCCCNc1cccccc1=O`, the GI50 in the test on NCI-H460 is > 100 µM (inactive); in the test with EKVX, > 100 µM (inactive); with TK-10, > 100 µM (inactive); in the test with SNB-75, > 100 µM (inactive); in the test with CCRF-CEM, > 100 µM (inactive); with OVCAR-4, 50.8 µM (inactive). The GI50 with M14 was 55.7 µM (inactive); in the test with NCI-H226, 73.6 µM (inactive); in the test with RPMI-8226, 43.4 µM (inactive); in the test with KM12, > 100 µM (inactive); with SK-OV-3, > 100 µM (inactive); in the test with M19-MEL, 83.2 µM (inactive). The GI50 was 62.1 µM (inactive) with MOLT-4; > 100 µM (inactive) with LOX IMVI; 83 µM (inactive) with CAKI-1; > 100 µM (inactive) in the test on IGROV-1; > 100 µM (inactive) in the test with OVCAR-5.

With `C/C(=N\N=C(/S)N1CC2CCC(CC2)C1)c1cccc[n+]1[O-]`, the GI50 in the test with NCI-H460 was 8.09 µM (inactive); in the test with EKVX it was 7.45 µM (inactive); in the test on TK-10 it was 20.4 µM (inactive); in the test with SNB-75, 11.5 µM (inactive); with CCRF-CEM, 0.238 µM (active); in the test on OVCAR-4 it was 2.46 µM (inactive). Besides, the GI50 in the test on M14 is 6.15 µM (inactive); in the test on NCI-H226 it was 3.41 µM (inactive); in the test with T47D it was 22.6 µM (inactive); with RPMI-8226, 0.381 µM (active); with KM12, 4.56 µM (inactive); with SK-OV-3, 35.8 µM (inactive). For the same molecule, the GI50 was 3.58 µM (inactive) with M19-MEL; 0.373 µM (active) with MOLT-4; 5.02 µM (inactive) in the test with LOX IMVI; 9.14 µM (inactive) with CAKI-1; 17.9 µM (inactive) in the test on IGROV-1; 6.11 µM (inactive) in the test on OVCAR-5. Further, in the test on NCI/ADR-RES, the GI50 is 3.09 µM (inactive).

Take `O=C1NC(=O)C2C1N(Cc1ccccc1)C(=O)N2Cc1ccccc1` (configuration not stated): the GI50 with NCI-H460, in the test with EKVX, in the test with TK-10, in the test with SNB-75, in the test with CCRF-CEM and in the test on OVCAR-4 was > 100 µM (inactive) each time. Further, the GI50 in the test on M14, with NCI-H226, with RPMI-8226, with KM12, with SK-OV-3 and in the test with M19-MEL was > 100 µM (inactive) in each case. The GI50 with MOLT-4, in the test with LOX IMVI, in the test with CAKI-1, with IGROV-1 and in the test on OVCAR-5 was > 100 µM (inactive) throughout.

In the case of `CN(C)C1(C#N)CCC2(CC1)OCCO2`, the GI50 in the test with NCI-H460, with EKVX, with TK-10, with SNB-75, with CCRF-CEM and in the test on OVCAR-4 was > 100 µM (inactive) throughout. The GI50 in the test on M14, in the test with NCI-H226, in the test on RPMI-8226, in the test with KM12, in the test on SK-OV-3 and with M19-MEL was > 100 µM (inactive) throughout. Further, the GI50 with MOLT-4, in the test with LOX IMVI, in the test with CAKI-1, in the test with IGROV-1 and in the test with OVCAR-5 was > 100 µM (inactive) throughout.

For `CCc1ccccc1NC(=O)C1=C(C)NC(C)=C(C(=O)Nc2ccccc2CC)C1c1ccc2c(c1)OCO2`, the GI50 in the test with NCI-H460 is 34.1 µM (inactive); with EKVX, 31.3 µM (inactive); in the test on TK-10, 47.6 µM (inactive); in the test on SNB-75, 23.7 µM (inactive); in the test with CCRF-CEM it was 19.5 µM (inactive); in the test with OVCAR-4 it was 23.2 µM (inactive). Also, the GI50 in the test with M14 is 26.2 µM (inactive); with NCI-H226, 24.3 µM (inactive); in the test with RPMI-8226, 14.5 µM (inactive); with KM12, 19.2 µM (inactive); in the test with SK-OV-3 it was 30.2 µM (inactive); with M19-MEL it was 40.9 µM (inactive). Besides, the GI50 in the test on MOLT-4 is 15.4 µM (inactive); with LOX IMVI it was 24.4 µM (inactive); in the test with CAKI-1, 25.2 µM (inactive); in the test with IGROV-1 it was 29.4 µM (inactive); in the test on OVCAR-5, 27.1 µM (inactive).

As for `CN[C@H](C)[C@@H](OC)c1ccccc1`, the GI50 in the test with NCI-H460 was > 100 µM (inactive); in the test on EKVX it was > 100 µM (inactive); in the test with TK-10, > 100 µM (inactive); with SNB-75 it was 61.4 µM (inactive); with CCRF-CEM, > 100 µM (inactive); in the test on OVCAR-4, > 100 µM (inactive). Moreover, the GI50 in the test on M14, in the test on NCI-H226, in the test on RPMI-8226, in the test with KM12, in the test with SK-OV-3 and in the test on M19-MEL was > 100 µM (inactive) in each case. The GI50 with MOLT-4, in the test with LOX IMVI, with CAKI-1, with IGROV-1 and in the test with OVCAR-5 was > 100 µM (inactive) throughout.

With `N=C(N)NS(=O)(=O)c1ccc(NCc2c3ccccc3[n+]([O-])c3ccccc23)cc1`, the GI50 with NCI-H460 is 3.43 µM (inactive); in the test on EKVX, > 100 µM (inactive); in the test with TK-10, > 100 µM (inactive); in the test on SNB-75, 13.5 µM (inactive); in the test with CCRF-CEM it was 5.64 µM (inactive); in the test on OVCAR-4 it was 23.8 µM (inactive). The GI50 was 46.6 µM (inactive) in the test on M14; 9.55 µM (inactive) in the test with NCI-H226; 12.4 µM (inactive) with RPMI-8226; 30.4 µM (inactive) with KM12; > 100 µM (inactive) in the test with SK-OV-3; 22.9 µM (inactive) with M19-MEL. The GI50 was 1.94 µM (inactive) with MOLT-4; 11.1 µM (inactive) with LOX IMVI; 21.3 µM (inactive) in the test on CAKI-1; 19.8 µM (inactive) in the test with IGROV-1; > 100 µM (inactive) in the test on OVCAR-5.

Take `CC(C)NC(=O)O/N=C1\CCC2[C@@H]3CC=C4C[C@@H](OC(=O)NC(C)C)CC[C@]4(C)C3CC[C@]12C` (some centres not stated): the GI50 in the test on NCI-H460 is 1.38 µM (inactive); in the test with EKVX, 1.28 µM (inactive); with TK-10 it was 1.66 µM (inactive); in the test with SNB-75 it was 1.87 µM (inactive); with CCRF-CEM, 1.24 µM (inactive); with OVCAR-4, 1.38 µM (inactive). For the same molecule, the GI50 was 0.627 µM (active) in the test on M14; 18.1 µM (inactive) in the test with NCI-H226; 0.695 µM (active) in the test on RPMI-8226; 1.68 µM (inactive) with KM12; 4.31 µM (inactive) with SK-OV-3; 1.29 µM (inactive) in the test with M19-MEL. Further, the GI50 in the test with MOLT-4 is 1.42 µM (inactive); in the test on LOX IMVI, 1.03 µM (active); with CAKI-1, 1.44 µM (inactive); in the test on IGROV-1, 1.87 µM (inactive); in the test with OVCAR-5, 0.748 µM (active).
